Results published in the supplement of paper PMC10307832.

What was measured:
Experiment in all cases: relative viability (nuclei count vs DMSO), 5 days (fraction); higher = more cells survive
Irinotecan + Olaparib = compound: CCc1c2c(nc3ccc(OC(=O)N4CCC(N5CCCCC5)CC4)cc13)-c1cc3c(c(=O)n1C2)COC(=O)[C@]3(O)CC [Irinotecan] + O=C(c1cc(Cc2n[nH]c(=O)c3ccccc23)ccc1F)N1CCN(C(=O)C2CC2)CC1 [Olaparib] (partner 8 µM)
Summary of the method: (§1)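 A single step with final 0.05% Triton X-100, 1% formaldehyde and 1 ug/ml Hoechst fixed the cells and stained nuclei 5 days after treatment. Lung cancer cell lines in 1536-well plates had been treated by pin tool the day after seeding with one drug alone or a fixed anchor-drug dose plus five library-drug doses (not always all listed) in √10 steps, and nuclei were counted on 4× images. Relative viability is the ratio of nuclei in treated wells to nuclei in vehicle wells, taken as the median of duplicate plates.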

MK-8033 + Decitabine = compound: Cn1cc(-c2cnc3ccc4ccc(CS(=O)(=O)NCc5ccccn5)cc4c(=O)c3c2)cn1 [MK-8033] + Nc1ncn([C@H]2C[C@H](O)[C@@H](CO)O2)c(=O)n1 [Decitabine] (partner 2 µM)
Summary of the method: as §1

MK-8033 + Lapatinib = compound: Cn1cc(-c2cnc3ccc4ccc(CS(=O)(=O)NCc5ccccn5)cc4c(=O)c3c2)cn1 [MK-8033] + CS(=O)(=O)CCNCc1ccc(-c2ccc3ncnc(Nc4ccc(OCc5cccc(F)c5)c(Cl)c4)c3c2)o1 [Lapatinib] (partner 2 µM)
Summary of the method: as §1

Irinotecan + Luminespib = compound: CCc1c2c(nc3ccc(OC(=O)N4CCC(N5CCCCC5)CC4)cc13)-c1cc3c(c(=O)n1C2)COC(=O)[C@]3(O)CC [Irinotecan] + CCNC(=O)c1noc(-c2cc(C(C)C)c(O)cc2O)c1-c1ccc(CN2CCOCC2)cc1 [Luminespib] (partner 0.01 µM)
Summary of the method: as §1

Row | Cell Line | relative viability (Irinotecan + Olaparib; first compound 0.6325 µM) | relative viability (Irinotecan + Olaparib; first compound 2 µM) | relative viability (Irinotecan + Olaparib; first compound 6.325 µM) | relative viability (Irinotecan + Olaparib; first compound 20 µM) | relative viability (MK-8033 + Decitabine; first compound 0.02 µM) | relative viability (MK-8033 + Decitabine; first compound 0.06325 µM) | relative viability (MK-8033 + Decitabine; first compound 0.2 µM) | relative viability (MK-8033 + Decitabine; first compound 0.6325 µM) | relative viability (MK-8033 + Decitabine; first compound 2 µM) | relative viability (MK-8033 + Lapatinib; first compound 0.02 µM) | relative viability (MK-8033 + Lapatinib; first compound 0.06325 µM) | relative viability (MK-8033 + Lapatinib; first compound 0.2 µM) | relative viability (MK-8033 + Lapatinib; first compound 0.6325 µM) | relative viability (MK-8033 + Lapatinib; first compound 2 µM) | relative viability (Irinotecan + Luminespib; first compound 0.6325 µM) | relative viability (Irinotecan + Luminespib; first compound 2 µM) | relative viability (Irinotecan + Luminespib; first compound 6.325 µM) | relative viability (Irinotecan + Luminespib; first compound 20 µM)
1 | NCI-H1915 | 0.151 | 0.186 | 0.144 | 0.115 | 0.255 | 0.239 | 0.255 | 0.266 | 0.264 | 0.935 | 0.85 | 0.992 | 1 | 0.948 | 0.346 | 0.36 | 0.149 | 0.132
2 | NCI-H1944 | 0.287 | 0.221 | 0.198 | 0.182 | 0.42 | 0.388 | 0.44 | 0.456 | 0.458 | 0.931 |  | 0.808 | 0.825 | 0.791 | 0.557 | 0.312 | 0.167 | 0.149
3 | NCI-H1975 | 0.797 | 0.935 | 0.323 | 0.193 | 0.351 | 0.328 | 0.358 | 0.342 | 0.427 | 0.829 | 0.795 | 0.801 | 0.844 | 0.826 | 0.107 | 0.201 | 0.175 | 0.235
4 | NCI-H1993 |  | 0.601 | 0.552 | 0.585 | 0.488 | 0.624 | 0.557 | 0.563 | 0.546 | 0.765 | 0.677 | 0.7 | 0.802 | 0.828 | 0.784 | 0.745 | 0.667 | 1.58
5 | NCI-H2009 | 0.508 | 0.287 | 0.194 | 0.128 | 0.376 | 0.318 | 0.351 | 0.372 | 0.403 | 0.959 | 0.887 | 0.929 | 1.13 | 0.973 | 0.863 | 0.486 | 0.25 | 0.252
6 | NCI-H2023 | 0.302 | 0.225 | 0.14 | 0.073 | 0.217 | 0.203 | 0.213 | 0.247 | 0.212 | 0.923 | 0.701 | 0.624 | 0.59 | 0.523 | 0.467 | 0.256 | 0.127 | 0.0843
7 | NCI-H2085 | 0.583 | 0.433 | 0.423 | 0.408 | 0.53 | 0.571 | 0.475 | 0.544 | 0.559 | 0.746 | 0.646 | 0.695 | 0.743 | 0.806 | 0.312 | 0.431 | 0.445 | 0.519
8 | NCI-H2087 | 0.175 | 0.196 | 0.154 | 0.173 | 0.223 | 0.159 | 0.289 | 0.272 | 0.277 | 0.991 | 1.11 | 1.11 | 0.859 | 0.98 | 0.158 | 0.183 | 0.2 | 0.261
9 | NCI-H2126 | 0.388 | 0.387 | 0.303 | 0.27 | 0.593 | 0.561 | 0.565 | 0.568 | 0.593 | 0.743 | 0.653 | 0.744 | 0.779 | 0.803 |  | 0.773 | 0.379 | 0.167
10 | NCI-H2170 | 0.173 | 0.184 | 0.121 | 0.102 | 0.461 | 0.405 | 0.458 | 0.479 | 0.468 | 0.272 | 0.263 | 0.254 | 0.311 | 0.275 | 0.601 | 0.498 | 0.168 | 0.188
11 | NCI-H2347 | 0.471 | 0.491 | 0.379 | 0.555 | 0.548 | 0.608 | 0.571 | 0.54 | 0.685 | 0.872 | 0.858 | 0.903 | 0.781 | 0.914 | 0.355 | 0.365 | 0.284 | 0.321
12 | NCI-H2405 |  | 0.495 | 0.256 | 0.0989 | 0.776 | 0.703 | 0.67 | 0.701 | 0.746 | 0.967 | 0.944 | 1.09 | 1.03 | 1.1 |  | 0.606 | 0.312 | 0.262
13 | NCI-H3122 | 0.217 | 0.201 | 0.16 | 0.14 | 0.441 | 0.478 | 0.406 | 0.508 | 0.469 | 1.03 | 0.98 | 1.01 | 1.01 | 0.993 | 0.0615 | 0.114 | 0.0849 | 0.109
14 | PC-3 [JPC-3] | 0.766 | 0.908 | 0.448 | 0.221 | 0.803 |  | 0.748 | 0.845 | 0.804 | 0.449 |  | 0.444 | 0.477 | 0.482 | 0.642 | 0.431 | 0.334 | 0.36
15 | PC-14 | 0.129 | 0.163 | 0.167 | 0.123 | 0.214 | 0.176 | 0.225 | 0.212 | 0.183 | 0.338 | 0.25 | 0.305 | 0.31 | 0.294 | 0.11 | 0.326 | 0.321 | 0.252
16 | RERF-LC-KJ | 0.806 | 0.56 | 0.38 | 0.243 | 0.501 | 0.712 | 0.682 | 0.756 | 0.686 | 0.901 | 0.823 | 0.854 | 0.798 | 0.815 | 0.692 | 0.567 | 0.461 | 0.224
17 | SK-LU-1 | 0.312 | 0.265 | 0.29 | 0.218 | 0.545 | 0.539 | 0.559 | 0.638 | 0.657 | 0.893 | 0.82 | 0.879 | 0.807 | 0.859 | 0.202 | 0.241 | 0.244 | 0.236
18 | SK-MES-1 | 0.364 | 0.293 | 0.325 | 0.255 | 0.355 | 0.362 | 0.4 | 0.407 | 0.499 | 0.433 | 0.437 | 0.478 | 0.459 | 0.441 | 0.818 | 0.521 | 0.324 | 0.234
